Assay results: publication PMC8633346, “Engineering of a fluorescent chemogenetic reporter with tunable color for advanced live-cell imaging” (Nature Communications, 2021)

Tests used:
pFAST [1] = target: T1, pFAST (Halorhodospira halophila, UniProt P16113, A30V/C69G/D97P/F96I/G21E/G25R/K17N/M100R/M109L/Q41L/Q99S/S117R/S72T/T101G/V83A/Y94W/Y98T); test: fluorescence titration, one-site fit
T1 construct: gene pyp; engineered PYP variant; changes relative to FAST: K17N, G21E, G25R, A30V, Q41L, S72T, V83A, M95T, M109L, S117R (M95T restores T95 of PYP); N-terminal His-tag, E. coli Rosetta (DE3) pLys, Ni-NTA; FAST 14 kDa
T1 sequence (P16113 1-125 K17N/G21E/G25R/A30V/Q41L/C69G/S72T/V83A/Y94W/F96I/D97P/Y98T/Q99S/M100R/T101G/M109L/S117R): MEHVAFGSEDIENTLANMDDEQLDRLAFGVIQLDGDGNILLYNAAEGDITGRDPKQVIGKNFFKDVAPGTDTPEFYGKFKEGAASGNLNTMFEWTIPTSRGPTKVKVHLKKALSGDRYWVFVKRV

pFAST [2] = target: T2, pFAST (Halorhodospira halophila, UniProt P16113, K17N/G21E/G25R/A30V/Q41L/C69G/S72T/V83A/Y94W/F96I/D97P/Y98T/Q99S/M100R/T101G/M109L/S117R); test: fluorescence titration, one-site fit; type: binding; conditions: PBS pH 7.4
T2 construct: gene pyp; engineered PYP variant; changes relative to FAST: K17N, G21E, G25R, A30V, Q41L, S72T, V83A, M95T, M109L, S117R (M95T restores T95 of PYP); N-terminal His-tag, E. coli Rosetta (DE3) pLys, Ni-NTA; FAST 14 kDa
T2 sequence (P16113 1-125 K17N/G21E/G25R/A30V/Q41L/C69G/S72T/V83A/Y94W/F96I/D97P/Y98T/Q99S/M100R/T101G/M109L/S117R): T1 sequence (P16113 1-125 K17N/G21E/G25R/A30V/Q41L/C69G/S72T/V83A/Y94W/F96I/D97P/Y98T/Q99S/M100R/T101G/M109L/S117R)

Row | SMILES | Kd (pFAST [1]) [nM] | KD (pFAST [2])
1 | COc1cc(C=C2SC(O)=NC2=S)cc(OC)c1O [HBIR-3,5DOM, (4-hydroxy-3,5-dimethoxylbenzylidene)-4-thioxothiazolidin-2-one] | 40 | 
2 | Cc1cc(C=C2OC(=O)NC2=O)cc(C)c1O [HBO-3,5DM, (4-hydroxy-3,5-dimethylbenzylidene)oxazolidine-2,4-dione] | 2400 | 
3 | Cc1cc(C=C2OC(=O)NC2=O)ccc1O [HBO-3M, (4-hydroxy-3-methylbenzylidene)oxazolidine-2,4-dione] | 430 | 
4 | Cc1cc(C=C2SC(=N)NC2=O)cc(C)c1O [HBP-3,5DM, (4-hydroxy-3,5-dimethylbenzylidene)-2-iminothiazolidin-4-one] | 150 | 
5 | COc1cc(C=C2SC(=N)NC2=O)cc(OC)c1O [HBP-3,5DOM, (4-hydroxy-3,5-dimethoxybenzylidene)-2-iminothiazolidin-4-one] | 1900 | 
6 | Cc1cc(C=C2SC(=N)NC2=O)ccc1O [HBP-3M, (4-hydroxy-3-methylbenzylidene)-2-iminothiazolidin-4-one] | 220 | 
7 | Cc1cc(C=C2SC(=S)NC2=O)cc(C)c1O [HBR-3,5DM, 4-hydroxy-3,5-dimethylbenzylidene rhodanine] | 10 | 
8 | COc1cc(C=C2SC(=S)NC2=O)cc(OC)c1O [HBR-3,5DOM, 4-hydroxy-3,5-dimethoxybenzylidene rhodanine] | 60 | 
9 | Cc1cc(/C=C2\SC(=S)N(CC(=O)O)C2=O)cc(C)c1O [HBRAA-3,5DM, 5-((4-hydroxy-3,5-dimethylbenzylidene)-4-oxo-2-thioxothiazolidin-3-yl) acetic acid] | 1800 | 
10 | Cc1cc(C=C2SC(=O)NC2=O)cc(C)c1O [HBT-3,5DM, (4-hydroxy-3,5-dimethylbenzylidene)thiazolidine-2,4-dione] | 170 | 
11 | COc1cc(/C=C2\SC(=O)NC2=O)cc(OC)c1O [HBT-3,5DOM, (4-hydroxy-3,5-dimethoxybenzylidene)thiazolidine-2,4-one] | 200 | 
12 | Cc1cc(C=C2SC(=O)NC2=O)ccc1O [HBT-3M, (4-hydroxy-3-methylbenzylidene)thiazolidine-2,4-dione] |  | KD) values of their assembly with pFAST are indicated into brackets
